In patent US20120016009A1, “Optimized Methods For Delivery Of DSRNA Targeting The PCSK9 Gene” (priority 2008, published 2012):
In the oligonucleotide strings, read from the 5' end, every base follows the letter of its sugar. An asterisk marks phosphorothioate; unmarked linkages are phosphodiester. Other units and linkages are bracketed, terminal groups are in braces. A string of capitals states the bases alone. d = 2'-deoxy (DNA); m = 2'-O-methyl; r = 2'-OH (RNA)

Tested on: PCSK9 mRNA
Experiment: PCSK9 siRNA screening in HepG2 cells (lipofectamine 2000 transfection, PCSK9 mRNA by Quantigene, normalized to GAP-DH)
Format: cell-based, human
Details: for Mean percent remaining mRNA transcript at siRNA concentration/in cell type 30 nM/HepG2: 30 nM siRNA; for Mean percent remaining mRNA transcript at siRNA concentration/in cell type 3 nM/HepG2: 3 nM siRNA; for Mean percent remaining mRNA transcript at siRNA concentration/in cell type 100 nM/HepG2: 100 nM siRNA
How it was run: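 PCSK9 silencing was assessed in HepG2 cells by lipofectamine 2000 siRNA transfection in 96-well plates. Twenty-four hours later, lysates were analyzed with the Quantigene Explore Kit, with PCSK9 signal normalized to GAP-DH. Eight datapoints were collected per siRNA, and remaining transcript was expressed as a percentage of cells treated with an unrelated control siRNA duplex.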

Substance: AD-9652: PCSK9 siRNA (sense mUmCmCmCrArGmCmCrArGrGrAmUmUmCmCrGmCrGdT*dT; antisense rCrGrCrGrGrArArUrCrCrUrGrGrCrUrGrGrGrAdT*dT)
- Mean percent remaining mRNA transcript at siRNA concentration/in cell type 30 nM/HepG2: 97%

Substance: AD-9628: PCSK9 siRNA (sense rUrUrCrUrCrUrGrCrCrArArArGrArUrGrUrCrAdT*dT; antisense rUrGrArCrArUrCrUrUrUrGrGrCrArGrArGrArAdT*dT)
- Mean percent remaining mRNA transcript at siRNA concentration/in cell type 30 nM/HepG2: 141%

Substance: AD-9674: PCSK9 siRNA (sense rGmCrArGmUmCrArGrArGmCrGmCrAmCmUrGmCmCdT*dT; antisense rGrGmCrArGrUrGrCrGrCrUrCrUrGrArCrUrGrCdT*dT)
- Mean percent remaining mRNA transcript at siRNA concentration/in cell type 3 nM/HepG2: 57%
- Mean percent remaining mRNA transcript at siRNA concentration/in cell type 30 nM/HepG2: 36%

Substance: AD-9698: PCSK9 siRNA (sense mCmCrArGrGmUrGmCmUrGmCmCmUrGmCmUrAmCmCdT*dT; antisense rGrGmUrArGmCrArGrGmCrArGmCrArCrCrUrGrGdT*dT)
- Mean percent remaining mRNA transcript at siRNA concentration/in cell type 30 nM/HepG2: 73%

Substance: AD-9685: PCSK9 siRNA (sense rGmUrGrAmCmCrAmCmCrGrGrGrArArAmUmCrGrAdT*dT; antisense rUrCrGrArUrUrUrCrCrCrGrGrUrGrGrUmCrArCdT*dT)
- Mean percent remaining mRNA transcript at siRNA concentration/in cell type 30 nM/HepG2: 77%

Substance: AD-9707: PCSK9 siRNA (sense mUrGmCrGmCrGmUrGmCmUmCrArAmCmUrGmCmCrAdT*dT; antisense rUrGrGmCrArGrUrUrGrArGmCrArCrGrCrGmCrAdT*dT)
- Mean percent remaining mRNA transcript at siRNA concentration/in cell type 30 nM/HepG2: 81%

Substance: AD-9631: PCSK9 siRNA (sense rCrUrCrUrGrCrCrArArArGrArUrGrUrCrArUrCdT*dT; antisense rGrArUrGrArCrArUrCrUrUrUrGrGrCrArGrArGdT*dT)
- Mean percent remaining mRNA transcript at siRNA concentration/in cell type 30 nM/HepG2: 80%

Substance: AD-9599: PCSK9 siRNA (sense rUrUrCrUrGrGrArUrGrGrCrArUrCrUrArGrCrCdT*dT; antisense rGrGrCrUrArGrArUrGrCrCrArUrCrCrArGrArAdT*dT)
- Mean percent remaining mRNA transcript at siRNA concentration/in cell type 30 nM/HepG2: 139%

Substance: AD-9627: PCSK9 siRNA (sense rArGrArGrArCrUrGrArUrCrCrArCrUrUrCrUrCdT*dT; antisense rGrArGrArArGrUrGrGrArUrCrArGrUrCrUrCrUdT*dT)
- Mean percent remaining mRNA transcript at siRNA concentration/in cell type 30 nM/HepG2: 69%

Substance: AD-9721: PCSK9 siRNA (sense mCmUrGrArGrGrAmCmCrArGmCrGrGrGmUrAmCmUdT*dT; antisense rArGmUrArCrCrCrGrCrUrGrGrUrCrCrUmCrArGdT*dT)
- Mean percent remaining mRNA transcript at siRNA concentration/in cell type 3 nM/HepG2: 70%
- Mean percent remaining mRNA transcript at siRNA concentration/in cell type 30 nM/HepG2: 87%

Substance: AD-9523: PCSK9 siRNA (sense rCrArGrCrCrArGrGrArUrUrCrCrGrCrGrCrGrCdT*dT; antisense rGrCrGrCrGrCrGrGrArArUrCrCrUrGrGrCrUrGdT*dT)
- Mean percent remaining mRNA transcript at siRNA concentration/in cell type 30 nM/HepG2: 55%

Substance: AD-9675: PCSK9 siRNA (sense rGrGrGmCmCmCrAmCrArAmCrGmCmUmUmUmUrGrGdT*dT; antisense rCmCrArArArArGrCrGrUrUrGrUrGrGrGrCrCrCdT*dT)
- Mean percent remaining mRNA transcript at siRNA concentration/in cell type 30 nM/HepG2: 78%

Substance: AD-9662: PCSK9 siRNA (sense mUmUrAmUmUmCrGrGrArArArArGmCmCrArGmCmUdT*dT; antisense rArGrCrUrGrGrCrUrUrUrUrCrCrGrArAmUrArAdT*dT)
- Mean percent remaining mRNA transcript at siRNA concentration/in cell type 30 nM/HepG2: 81%

Substance: AD-9588: PCSK9 siRNA (sense rGrGrUrCrArCrCrGrCrUrGrCrCrGrGrCrArArCdT*dT; antisense rGrUrUrGrCrCrGrGrCrArGrCrGrGrUrGrArCrCdT*dT)
- Mean percent remaining mRNA transcript at siRNA concentration/in cell type 30 nM/HepG2: 66%

Substance: AD-9608: PCSK9 siRNA (sense rUrGrCrUrArGrCrCrUrUrGrCrGrUrUrCrCrGrAdT*dT; antisense rUrCrGrGrArArCrGrCrArArGrGrCrUrArGrCrAdT*dT)
- Mean percent remaining mRNA transcript at siRNA concentration/in cell type 30 nM/HepG2: 37%

Substance: AD-9562: PCSK9 siRNA (sense rUrCrUrCrCrUrArGrArCrArCrCrArGrCrArUrAdT*dT; antisense rUrArUrGrCrUrGrGrUrGrUrCrUrArGrGrArGrAdT*dT)
- Mean percent remaining mRNA transcript at siRNA concentration/in cell type 3 nM/HepG2: 51%
- Mean percent remaining mRNA transcript at siRNA concentration/in cell type 30 nM/HepG2: 46%

Substance: AD-9688: PCSK9 siRNA (sense mUmCmUmCmCmUrArGrAmCrAmCmCrArGmCrAmUrAdT*dT; antisense mUrArUrGrCrUrGrGrUrGrUrCmUrArGrGrArGrAdT*dT)
- IC50: 4.2 nM
- Mean percent remaining mRNA transcript at siRNA concentration/in cell type 3 nM/HepG2: 34%
- Mean percent remaining mRNA transcript at siRNA concentration/in cell type 30 nM/HepG2: 26%

Substance: AD-9646: PCSK9 siRNA (sense mCmUrGrGmUrGmCmUrArGmCmCmUmUrGmCrGmUmUdT*dT; antisense rArArCrGmCrArArGrGrCmUrArGmCrArCmCrArGdT*dT)
- Mean percent remaining mRNA transcript at siRNA concentration/in cell type 3 nM/HepG2: 108%
- Mean percent remaining mRNA transcript at siRNA concentration/in cell type 30 nM/HepG2: 97%

Substance: AD-9725: PCSK9 siRNA (sense mUmUmCmUrGrGrAmUrGrGmCrAmUmCmUrArGmCmCdT*dT; antisense rGrGrCmUrArGrArUrGrCmCrArUrCmCrArGrArAdT*dT)
- Mean percent remaining mRNA transcript at siRNA concentration/in cell type 30 nM/HepG2: 38%

Substance: AD-9718: PCSK9 siRNA (sense mCmCmUrArGrAmCrAmCmCrArGmCrAmUrAmCrArGdT*dT; antisense rCrUrGmUrArUrGrCrUrGrGrUrGrUrCmUrArGrGdT*dT)
- Mean percent remaining mRNA transcript at siRNA concentration/in cell type 30 nM/HepG2: 78%

Substance: AD-9754: PCSK9 siRNA (sense mUmUmCmUmCmUrGmCmCrArArArGrAmUrGmUmCrAdT*dT; antisense rUrGrAmCrArUrCrUrUrUrGrGmCrArGrArGrArAdT*dT)
- Mean percent remaining mRNA transcript at siRNA concentration/in cell type 30 nM/HepG2: 89%

Substance: AD-9570: PCSK9 siRNA (sense rCrUrGrCrCrGrGrGrCrCrCrArCrArArCrGrCrUdT*dT; antisense rArGrCrGrUrUrGrUrGrGrGrCrCrCrGrGrCrArGdT*dT)
- Mean percent remaining mRNA transcript at siRNA concentration/in cell type 30 nM/HepG2: 42%
- Mean percent remaining mRNA transcript at siRNA concentration/in cell type 100 nM/HepG2: 35%

Substance: AD-9541: PCSK9 siRNA (sense rGrGrUrGrArGrGrGrUrGrUrCrUrArCrGrCrCrAdT*dT; antisense rUrGrGrCrGrUrArGrArCrArCrCrCrUrCrArCrCdT*dT)
- Mean percent remaining mRNA transcript at siRNA concentration/in cell type 30 nM/HepG2: 43%

Substance: AD-9630: PCSK9 siRNA (sense rGrGrGrCrArGrGrGrUrCrArUrGrGrUrCrArCrCdT*dT; antisense rGrGrUrGrArCrCrArUrGrArCrCrCrUrGrCrCrCdT*dT)
- Mean percent remaining mRNA transcript at siRNA concentration/in cell type 30 nM/HepG2: 82%

Substance: AD-9689: PCSK9 siRNA (sense mCrGmCmUrGmCmCrGrGmCrArAmCmUmUmCmCrGrGdT*dT; antisense rCrCrGrGrArArGrUrUrGrCrCrGrGmCrArGrCrGdT*dT)
- Mean percent remaining mRNA transcript at siRNA concentration/in cell type 30 nM/HepG2: 81%

Substance: AD-9651: PCSK9 siRNA (sense rGrGrArGmUmUmUrAmUmUmCrGrGrArArArArGmCdT*dT; antisense rGrCrUrUrUrUrCrCrGrArAmUrArArArCrUrCrCdT*dT)
- Mean percent remaining mRNA transcript at siRNA concentration/in cell type 30 nM/HepG2: 58%

Substance: AD-9636: PCSK9 siRNA (sense rCrArUrArCrArGrArGrUrGrArCrCrArCrCrGrGdT*dT; antisense rCrCrGrGrUrGrGrUrCrArCrUrCrUrGrUrArUrGdT*dT)
- IC50: 2.1 nM
- Mean percent remaining mRNA transcript at siRNA concentration/in cell type 3 nM/HepG2: 41%
- Mean percent remaining mRNA transcript at siRNA concentration/in cell type 30 nM/HepG2: 42%

Substance: AD-9592: PCSK9 siRNA (sense rCrCrUrArGrArCrArCrCrArGrCrArUrArCrArGdT*dT; antisense rCrUrGrUrArUrGrCrUrGrGrUrGrUrCrUrArGrGdT*dT)
- Mean percent remaining mRNA transcript at siRNA concentration/in cell type 30 nM/HepG2: 55%
- Mean percent remaining mRNA transcript at siRNA concentration/in cell type 100 nM/HepG2: 46%

Substance: AD-9746: PCSK9 siRNA (sense mCrArGrGrArGmCmCrGrGrGrAmCrGmUmCrArGmCdT*dT; antisense rGrCrUrGrArCrGrUrCrCrCrGrGrCrUrCrCrUrGdT*dT)
- Mean percent remaining mRNA transcript at siRNA concentration/in cell type 30 nM/HepG2: 89%

Substance: AD-9567: PCSK9 siRNA (sense rCrGrCrUrGrUrGrUrGrGrArCrCrUrCrUrUrUrGdT*dT; antisense rCrArArArGrArGrGrUrCrCrArCrArCrArGrCrGdT*dT)
- Mean percent remaining mRNA transcript at siRNA concentration/in cell type 30 nM/HepG2: 41%

Substance: AD-9542: PCSK9 siRNA (sense rArUrCrGrArGrGrGrCrArGrGrGrUrCrArUrGrGdT*dT; antisense rCrCrArUrGrArCrCrCrUrGrCrCrCrUrCrGrArUdT*dT)
- Mean percent remaining mRNA transcript at siRNA concentration/in cell type 30 nM/HepG2: 160%

Substance: AD-9635: PCSK9 siRNA (sense rGrUrCrUrGrCrCrGrArGrCrCrGrGrArGrCrUrCdT*dT; antisense rGrArGrCrUrCrCrGrGrCrUrCrGrGrCrArGrArCdT*dT)
- Mean percent remaining mRNA transcript at siRNA concentration/in cell type 30 nM/HepG2: 90%
- Mean percent remaining mRNA transcript at siRNA concentration/in cell type 100 nM/HepG2: 73%

Substance: AD-9691: PCSK9 siRNA (sense mUrAmCmUmCmUrGmCmUmCmUrAmUrGmCmCrArGrGdT*dT; antisense rCrCrUrGrGmCrAmUrArGrArGmCrArGrArGmUrAdT*dT)
- Mean percent remaining mRNA transcript at siRNA concentration/in cell type 30 nM/HepG2: 49%

Substance: AD-9645: PCSK9 siRNA (sense mCmCmCrArGmCmCrArGrGrAmUmUmCmCrGmCrGmCdT*dT; antisense rGrCrGrCrGrGrArArUrCrCrUrGrGrCrUrGrGrGdT*dT)
- Mean percent remaining mRNA transcript at siRNA concentration/in cell type 30 nM/HepG2: 66%

Substance: AD-9715: PCSK9 siRNA (sense mCrAmCmCrGmCmUrGmCmCrGrGmCrArAmCmUmUmCdT*dT; antisense rGrArArGrUrUrGrCrCrGrGmCrArGrCrGrGrUrGdT*dT)
- Mean percent remaining mRNA transcript at siRNA concentration/in cell type 30 nM/HepG2: 113%

Substance: AD-9571: PCSK9 siRNA (sense rGrCrCrArGrGrUrGrCrUrGrCrCrUrGrCrUrArCdT*dT; antisense rGrUrArGrCrArGrGrCrArGrCrArCrCrUrGrGrCdT*dT)
- Mean percent remaining mRNA transcript at siRNA concentration/in cell type 3 nM/HepG2: 32%
- Mean percent remaining mRNA transcript at siRNA concentration/in cell type 30 nM/HepG2: 27%
